Source: paper PMC10355216, “The C-terminal tail of CSNAP attenuates the CSN complex” (Life Science Alliance, 2023)
Where no end group is shown, it is not given here.

Experiments:
CSN^ΔCSNAP complex = assay: BIAcore surface plasmon resonance biosensor assay; conditions: C-terminally biotinylated peptide immobilized on SA chip, CSN^ΔCSNAP 1-8 nM injected, 180 s binding, 1,000 s dissociation, 25°C, 1:1 binding fit
Excerpt: To validate the peptide array results, we used the surface plasmon resonance biosensor (Biacore) method to measure the binding affinities between C-CSNAP peptides and CSN^ΔCSNAP. We selected three peptides, the 16 residue C-terminal fragment (^42[…]^57, 16AA C-CSNAP) (Fig 4B), the 20 amino acid peptide (^38[…]^57, 20AA C-CSNAP) (Fig 4C), and a peptide containing the substitution of Asp to Glu at position 42 (D42E C-CSNAP) (Fig 4D). As a positive control, we used full-length CSNAP (Fig 4A), and a scrambled peptide ([…]) (Fig 4E) was used as a negative control. Interaction between the CSN^ΔCSNAP complex and the CSNAP variants was measured using a setting of 180 s binding followed by 1,000 s dissociation time (Fig 4).
Figure 4. C-CSNAP peptides display high affinity towards the CSN^ΔCSNAP complex. […] (F) Binding rate constants and affinities were determined via Biacore Evaluation Software analysis of SPR sensograms. […]
The experiments were carried out using Biacore SA200 SPR sensor (Biacore, GE Healthcare) with control software version 1.1 and Cytiva Series S Sensor chip SA. […] Data were analyzed in SA200 evaluation software version 1.1, with automatic fitting using parameter setting 1:1 binding (ka, kd, and tc global fit, Rmax and RI local fit).

CSN complex = assay: Reciprocal co-immunoprecipitation (anti-CSN3, anti-GFP) of Cer fusions in HAP1 cells; type: cell-based; conditions: peptides fused to Cer expressed in HAP1 cells; anti-CSN3 and anti-GFP pull-downs
Excerpt: To clarify the ability of C-CSNAP peptides to displace CSNAP in cells, we stably expressed four versions of CSNAP, the 16AA and 20AA C-CSNAP, D42E and scrambled peptides fused to the fluorescent protein Cer in HAP1 cells. As control, we used HAP1 cells expressing Cer only. We then performed reciprocal co-immunoprecipitation analyses, using antibodies against CSN3 and GFP recognizing Cer (Figs 6A and S5). […] This is reflected by the higher intensity of the GFP band upon CSN3 pull down, and by the more intense CSN3 band following GFP co-immunoprecipitation.
(§1) Figure 6. Expression of C-CSNAP reduces cellular proliferation rate. (A) Immunoprecipitation analysis using anti-GFP antibody recognizing cerulean (Cer) from lysates of cells expressing the Cer-fused 16AA, 20AA, D42E, and scrambled C-CSNAP in HAP1 WT cells. The COP9 signalosome complex was pulled down from all cells, except when Cer is expressed alone or fused to the scrambled C-CSNAP. Similarly, reciprocal immunoprecipitation by an anti-CSN3 antibody pulled down only the Cer-fused 16AA, 20AA, or D42E C-CSNAP. (B) Stable overexpression of 16AA and 20AA C-CSNAP–Cer in HAP1 WT cells reduces their rate of proliferation. […] One-way ANOVA (P < 0.05) with Dunnett’s multiple comparisons test was used to compare means *P < 0.05, **P < 0.01.
Figure S5. […]

CSN complex (CSN5) = assay: Co-immunoprecipitation (anti-GFP) of transiently expressed Cer fusions in HAP1 WT cells; type: cell-based; conditions: transient expression of Cer fusions, anti-GFP pull-down, CSN5/GFP densitometry, at least three experiments
Excerpt: To define whether C-CSNAP can displace the endogenous CSN subunit from the complex, we transiently expressed several versions of C-CSNAP peptides with differing lengths, fused to the fluorescent protein cerulean (Cer) in WT HAP1 cells (Fig 2A) and cells lacking CSNAP (ΔCSNAP cells) (Fig S2A). We then performed co-immunoprecipitation analyses, using an antibody against GFP that recognizes the Cer tag (Figs 2B and C and S2B). […] Moreover, in ΔCSNAP cells, all C-CSNAP derivatives were efficiently incorporated into CSN (Fig S2B), whereas in WT cells, differential integration was observed (Fig 2B). […] Truncations of the 16 amino acid stretch from either end decreased or abolished the incorporation efficiency (Fig 2B and C).
Figure 2. The last 16 amino acids of CSNAP efficiently displace the endogenous CSNAP subunit. (A) The different CSNAP C-terminal sequences that were examined. The 16 amino acid sequence is highlighted in blue, and the N- or C-terminally truncated forms are labelled in green and magenta, respectively (numbering of residues are corresponding to full length CSNAP). […] (C) Quantification of the densitometry results of at least three independent immunoprecipitation experiments using an anti-GFP antibody, represented as mean ratios of immunoprecipitated CSN5/GFP, followed by normalization to the sample transfected with Cer, plotted as mean ± SEM. […]

HAP1 WT cells = assay: Resazurin-based cell proliferation assay; conditions: HAP1 WT cells stably expressing Cer fusions, 24 h after plating, five independent experiments
Excerpt: as §1, with “0.01. […]” for “0.01.”
HAP1 WT cells stably expressing Cer, 16AA, and 20AA C-CSNAP–Cer were trypsinized and counted. […] Fluorescence intensities at 560/600 nm (ex/em) were measured, and average intensities of four replicates in each plate were calculated, normalized against WT after background subtraction, and normalized values from five independent experiments were compared on a bar graph with SEM. Significance was calculated using repeated measurment one-way ANOVA (P < 0.05) with Dunnett’s multiple comparisons test was used to compare means to Cer as control *P < 0.05, **P < 0.01.

Substance | Kd (CSN^ΔCSNAP complex) | integration into the CSN complex, based on band intensities, in words (CSN complex) | association with / incorporation into the CSN complex, in words (CSN complex (CSN5)) | cell proliferation compared with cells expressing only Cer, in words (HAP1 WT cells)
IDGENVSNLDYARKAT [scrambled peptide] | No measurable binding |  |  | 
16AA C-CSNAP–Cer: 16AA C-CSNAP fused to the fluorescent protein cerulean (Cer), expressed in HAP1 cells (DFFNDFEDLFDDDDIQ; also: C-terminal fusion to Cerulean via Gly-Ser-Gly-Ser linker) |  | lower | highest degree of association with the CSN complex | significant reductions in cell proliferation
